Results taken from US20070117743A1, “New antitumoral compounds” (priority 2003, published 2007).
Like-named read-outs stand apart in the source and are kept apart here. Where a SMILES comes first, the peptide text is derived from it. Bridges are numbered along the chain shown (N, C = ends). [ ]: non-standard residue; d: D form. The star is where a group is joined. 2Nal = N[C@@H](Cc1ccc2ccccc2c1)C(=O)O; d(aIle) = CC[C@H](C)[C@@H](N)C(=O)O; d(aThr) = C[C@@H](O)[C@@H](N)C(=O)O; Hexanoyl(5-Me) = CC(C)CCCC(=O)*; Orn = NCCC[C@H](N)C(=O)O; Dhb = C/C=C(\N)C(=O)O

Columns and labels:
Assay type in all cases: cell-based, human
IGROV-1 = experiment: SRB colorimetric assay of cell growth and viability, IGROV-1; settings: 48 hours exposure
HT-29 = experiment: SRB colorimetric assay of cell growth and viability, HT-29; settings: 48 hours exposure; for GI50: read-out: GI50 HT-29; for CC50: read-out: LC50 HT-29
IGROV-ET = experiment: SRB colorimetric assay of cell growth and viability, IGROV-ET; settings: 48 hours exposure; for CC50: read-out: LC50 IGROV-ET
PANC-1 = experiment: SRB colorimetric assay of cell growth and viability, PANC-1; settings: 48 hours exposure; for CC50: read-out: LC50 PANC-1
HeLa = experiment: SRB colorimetric assay of cell growth and viability, HeLa; settings: 48 hours exposure; for CC50: read-out: LC50 HELA
SK-BR-3 = experiment: SRB colorimetric assay of cell growth and viability, SK-BR-3; settings: 48 hours exposure
DU-145 = experiment: SRB colorimetric assay of cell growth and viability, DU-145; settings: 48 hours exposure
LoVo = experiment: SRB colorimetric assay of cell growth and viability, LoVo; settings: 48 hours exposure; for CC50: read-out: LC50 LOVO
K-562 = experiment: SRB colorimetric assay of cell growth and viability, K-562; settings: 48 hours exposure; for CC50: read-out: LC50 K-562
HeLa-APL = experiment: SRB colorimetric assay of cell growth and viability, HeLa-APL; settings: 48 hours exposure; for CC50: read-out: LC50 HELA-APL
SK-MEL-28 = experiment: SRB colorimetric assay of cell growth and viability, SK-MEL-28; settings: 48 hours exposure; for CC50: read-out: LC50 MEL-28
LoVo-Dox = experiment: SRB colorimetric assay of cell growth and viability, LoVo-Dox; settings: 48 hours exposure; for CC50: read-out: LC50 LOVO-DOX
Summary of the method: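 Human tumor cells seeded at 5×10^3/well in RPMI 1640 10% FBS, attached 18 hours, then exposed 48 hours to compound (10 to 10^−8 μg/mL). TCA-fixed, SRB-stained, OD 490 nm; triplicates give GI, TGI and LC values.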

A-549 = experiment: SRB colorimetric assay of cell growth and viability, A-549; settings: 48 hours exposure; for GI50: read-out: GI50 A-549; for CC50: read-out: LC50 A-549

In the case of `C/C=C1\NC(=O)[C@H](Cc2ccc3ccccc3c2)NC(=O)[C@@H](C(C)C)NC(=O)[C@@H]([C@@H](C)CC)NC(=O)[C@H](NC(=O)[C@H](NC(=O)[C@H](CCCN)NC(=O)[C@H]2CCCN2C(=O)[C@H](NC(=O)[C@@H](NC(=O)[C@@H](NC(=O)[C@H](NC(=O)CCCC(C)C)C(C)C)[C@@H](C)O)C(C)C)C(C)C)[C@@H](C)CC)[C@@H](C)OC(=O)[C@H](C(C)C)NC1=O` [Compound 85, [Nal^3]-KF] ({Hexanoyl(5-Me)}-[dV]TV[dV][dP][Orn][d(aIle)][d(aThr)][d(aIle)][dV][2Nal][Dhb]V; ester 8-C), the GI50 (IGROV-1; IGROV) is reported as 49.8 nM, the LC50 (concentration causing 50% net cell killing) (IGROV-1; IGROV) is reported as 169 nM and the “TGI IGROV” value (IGROV-1; IGROV) is reported as 9.81E−08 Molar. For the same compound, the “TGI HT-29” value (HT-29; HT-29) was 1.16E−07 Molar, the GI50 (HT-29; HT-29) was 73.1 nM and the CC50 (HT-29; HT-29) was 278 nM. The GI50 (IGROV-ET; IGROV-ET) was 74.3 nM, the “TGI IGROV-ET” value (IGROV-ET; IGROV-ET) was 1.44E−07 Molar and the CC50 (IGROV-ET; IGROV-ET) was 425 nM. The GI50 (PANC-1; PANC-1) was 694 nM, the “TGI PANC-1” value (PANC-1; PANC-1) was 1.04E−06 Molar and the CC50 (PANC-1; PANC-1) was 1570 nM. For the same compound, the GI50 (HeLa; HELA) was 78.6 nM, the “TGI HELA” value (HeLa; HELA) was 1.94E−07 Molar and the CC50 (HeLa; HELA) was 462 nM. The GI50 (SK-BR-3; SK-BR-3) was 37.1 nM, the LC50 (SK-BR-3; SK-BR-3) was 170 nM and the “TGI SK-BR-3” value (SK-BR-3; SK-BR-3) was 5.80E−08 Molar. For the same compound, the GI50 (DU-145; DU-145) was 111 nM, the LC50 (concentration causing 50% net cell kill) (DU-145; DU-145) was 488 nM and the “TGI DU-145” value (DU-145; DU-145) was 2.53E−07 Molar. The GI50 (LoVo; LOVO) was 32.8 nM, the “TGI LOVO” value (LoVo; LOVO) was 8.16E−08 Molar and the CC50 (LoVo; LOVO) was 192 nM. For the same compound, the GI50 (K-562; K-562) was 301 nM, the “TGI K-562” value (K-562; K-562) was 7.13E−07 Molar and the CC50 (K-562; K-562) was 1380 nM. The GI50 (HeLa-APL; HELA-APL) was 90.7 nM, the “TGI HELA-APL” value (HeLa-APL; HELA-APL) was 1.91E−07 Molar and the CC50 (HeLa-APL; HELA-APL) was 427 nM. The GI50 (SK-MEL-28; MEL-28) was 230 nM, the “TGI MEL-28” value (SK-MEL-28; MEL-28) was 3.64E−07 Molar and the CC50 (SK-MEL-28; MEL-28) was 579 nM. For the same compound, the GI50 (LoVo-Dox; LOVO-DOX) was 37 nM, the “TGI LOVO-DOX” value (LoVo-Dox; LOVO-DOX) was 8.77E−08 Molar and the CC50 (LoVo-Dox; LOVO-DOX) was 847 nM. For the same compound, the “TGI A-549” value (A-549; A-549) was 3.39E−07 Molar, the GI50 (A-549; A-549) was 192 nM and the CC50 (A-549; A-549) was 599 nM.

For `C/C=C1\NC(=O)[C@H](Cc2ccccc2)N(C)C(=O)[C@@H](C(C)C)NC(=O)[C@@H]([C@@H](C)CC)NC(=O)[C@H](NC(=O)[C@H](NC(=O)[C@H](CCCN)NC(=O)[C@H]2CCCN2C(=O)[C@H](NC(=O)[C@@H](NC(=O)[C@@H](NC(=O)[C@H](NC(=O)CC[C@@H](C)CC)C(C)C)[C@@H](C)O)C(C)C)C(C)C)[C@@H](C)CC)[C@@H](C)OC(=O)[C@H](C(C)C)NC1=O` [Compound 80, [NMePhe^3, (4S)-MeHex^14]-KF], the GI50 (IGROV-1; SRB) was 416 nM, the LC50 (concentration causing 50% net cell killing) (IGROV-1; SRB) was 2820 nM and the “TGI IGROV” value (IGROV-1; SRB) was 1.17E−06 Molar. The “TGI HT-29” value (HT-29; SRB) was 4.03E−07 Molar, the GI50 (HT-29; SRB) was 178 nM and the CC50 (HT-29; SRB) was 1200 nM. The GI50 (IGROV-ET; SRB) was 583 nM, the “TGI IGROV-ET” value (IGROV-ET; SRB) was 1.39E−06 Molar and the CC50 (IGROV-ET; SRB) was 3040 nM. The GI50 (PANC-1; SRB) was 1900 nM, the “TGI PANC-1” value (PANC-1; SRB) was 3.82E−06 Molar and the CC50 (PANC-1; SRB) was 6700 nM. For the same compound, the GI50 (HeLa; SRB) was 392 nM, the “TGI HELA” value (HeLa; SRB) was 1.19E−06 Molar and the CC50 (HeLa; SRB) was 2510 nM. The GI50 (SK-BR-3; SRB) was 123 nM, the LC50 (SK-BR-3; SRB) was 1430 nM and the “TGI SK-BR-3” value (SK-BR-3; SRB) was 3.29E−07 Molar. For the same compound, the GI50 (DU-145; SRB) was 1070 nM, the LC50 (concentration causing 50% net cell kill) (DU-145; SRB) was 3620 nM and the “TGI DU-145” value (DU-145; SRB) was 1.97E−06 Molar. The GI50 (LoVo; SRB) was 125 nM, the “TGI LOVO” value (LoVo; SRB) was 2.61E−07 Molar and the CC50 (LoVo; SRB) was 545 nM. The GI50 (K-562; SRB) was 744 nM, the “TGI K-562” value (K-562; SRB) was 1.62E−06 Molar and the CC50 (K-562; SRB) was 3540 nM. For the same compound, the GI50 (HeLa-APL; SRB) was 845 nM, the “TGI HELA-APL” value (HeLa-APL; SRB) was 1.64E−06 Molar and the CC50 (HeLa-APL; SRB) was 3190 nM. For the same compound, the GI50 (SK-MEL-28; SRB) was 1320 nM, the “TGI MEL-28” value (SK-MEL-28; SRB) was 2.25E−06 Molar and the CC50 (SK-MEL-28; SRB) was 3840 nM. The GI50 (LoVo-Dox; SRB) was 120 nM, the “TGI LOVO-DOX” value (LoVo-Dox; SRB) was 2.08E−07 Molar and the CC50 (LoVo-Dox; SRB) was 359 nM. For the same compound, the “TGI A-549” value (A-549; SRB) was 2.03E−06 Molar, the GI50 (A-549; SRB) was 1130 nM and the CC50 (A-549; SRB) was 3670 nM.
